Experiment [1] concerns the target T1, Axl (Homo sapiens, UniProt P30530).
T1 construct: purchased Life Technologies
T1 sequence (P30530 26-894): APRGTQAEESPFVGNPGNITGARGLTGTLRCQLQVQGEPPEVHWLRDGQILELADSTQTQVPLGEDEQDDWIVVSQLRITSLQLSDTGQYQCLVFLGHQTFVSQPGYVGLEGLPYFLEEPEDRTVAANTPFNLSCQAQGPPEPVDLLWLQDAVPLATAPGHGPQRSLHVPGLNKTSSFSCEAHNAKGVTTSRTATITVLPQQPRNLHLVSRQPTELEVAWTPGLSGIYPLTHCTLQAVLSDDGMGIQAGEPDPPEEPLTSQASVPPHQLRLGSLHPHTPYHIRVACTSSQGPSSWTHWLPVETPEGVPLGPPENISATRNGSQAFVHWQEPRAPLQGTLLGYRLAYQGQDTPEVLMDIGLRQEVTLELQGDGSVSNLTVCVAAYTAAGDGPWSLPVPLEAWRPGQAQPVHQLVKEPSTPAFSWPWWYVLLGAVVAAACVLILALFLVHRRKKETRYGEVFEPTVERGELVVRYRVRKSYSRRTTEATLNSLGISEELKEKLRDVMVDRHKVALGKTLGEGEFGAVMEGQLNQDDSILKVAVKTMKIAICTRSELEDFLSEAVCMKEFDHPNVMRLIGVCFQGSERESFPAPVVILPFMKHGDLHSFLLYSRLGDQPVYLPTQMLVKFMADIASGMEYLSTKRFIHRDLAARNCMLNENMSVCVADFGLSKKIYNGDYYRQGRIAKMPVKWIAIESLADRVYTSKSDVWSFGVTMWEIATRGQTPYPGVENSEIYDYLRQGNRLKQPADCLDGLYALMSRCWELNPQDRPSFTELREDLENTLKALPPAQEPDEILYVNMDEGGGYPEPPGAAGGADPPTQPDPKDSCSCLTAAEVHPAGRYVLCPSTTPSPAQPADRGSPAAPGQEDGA
Description: LanthaScreen Eu kinase binding assay, Axl. Particulars: Tracer 236. The procedure:
(§1) LanthaScreen® Eu Kinase Binding assays were conducted at Life Technologies using the manufacturer's specifications for each kinase indicated.
(§2) Briefly, the principle behind this assay is based upon the binding and displacement of an Alexa Fluor 647-labeled tracer to the kinase of interest. Binding of the tracer to the kinase is detected using an EU-labeled anti-tag antibody. Simultaneous binding of both the tracer and antibody to the kinase gives rise to a FRET-signal. Binding of an inhibitor to the kinase competes for binding with the tracer, resulting in a loss of FRET-signal.
(§3) Binding Assay Protocol for AXL, Mer, Tyro3 and Met
(§4) A given compound was diluted in DMSO to make a stock compound solution. The stock compound solution was serially diluted over eight steps in DMSO. Each diluted compound solution in DMSO was diluted in kinase buffer. Afterwards four kinds of working solution were prepared. First, Tracer-Working solution consists of Tracer 236 and Kinase Buffer. Second, Axl, Mer, Tyro3 or Met/anti-GST-AB-Working solution contained one of the kinases Axl, Mer, Tyro3, Met or anti-GST-AB (=anti glutathione-S-transferase antibody) in Kinase Buffer. Third, anti-GST-AB-Working solution was made with anti-GST-AB and Kinase Buffer. Last, in the DMSO-Working solution DMSO was added to Kinase Buffer to a final concentration to 3%. Each of the four kinds of working solutions were separately added to the assay plate and then incubated for 1 h at room temperature. After incubation, the assay plate was measured with respect to the FRET-Signal with the EnVision (Perkin Elmer) using the program LanthaHTRF-Assay. Data evaluation was done in the Quattro Workflow software.
(§5) Table 1 summarises the results obtained for AXL, Mer and Tyro3-kinases binding assays; table 2 summarises the results obtained for the Met kinase binding assay.

Experiment [2] concerns the target T2, TYRO3 (Homo sapiens, UniProt Q06418).
T2 construct: purchased Life Technologies
T2 sequence (Q06418 41-890): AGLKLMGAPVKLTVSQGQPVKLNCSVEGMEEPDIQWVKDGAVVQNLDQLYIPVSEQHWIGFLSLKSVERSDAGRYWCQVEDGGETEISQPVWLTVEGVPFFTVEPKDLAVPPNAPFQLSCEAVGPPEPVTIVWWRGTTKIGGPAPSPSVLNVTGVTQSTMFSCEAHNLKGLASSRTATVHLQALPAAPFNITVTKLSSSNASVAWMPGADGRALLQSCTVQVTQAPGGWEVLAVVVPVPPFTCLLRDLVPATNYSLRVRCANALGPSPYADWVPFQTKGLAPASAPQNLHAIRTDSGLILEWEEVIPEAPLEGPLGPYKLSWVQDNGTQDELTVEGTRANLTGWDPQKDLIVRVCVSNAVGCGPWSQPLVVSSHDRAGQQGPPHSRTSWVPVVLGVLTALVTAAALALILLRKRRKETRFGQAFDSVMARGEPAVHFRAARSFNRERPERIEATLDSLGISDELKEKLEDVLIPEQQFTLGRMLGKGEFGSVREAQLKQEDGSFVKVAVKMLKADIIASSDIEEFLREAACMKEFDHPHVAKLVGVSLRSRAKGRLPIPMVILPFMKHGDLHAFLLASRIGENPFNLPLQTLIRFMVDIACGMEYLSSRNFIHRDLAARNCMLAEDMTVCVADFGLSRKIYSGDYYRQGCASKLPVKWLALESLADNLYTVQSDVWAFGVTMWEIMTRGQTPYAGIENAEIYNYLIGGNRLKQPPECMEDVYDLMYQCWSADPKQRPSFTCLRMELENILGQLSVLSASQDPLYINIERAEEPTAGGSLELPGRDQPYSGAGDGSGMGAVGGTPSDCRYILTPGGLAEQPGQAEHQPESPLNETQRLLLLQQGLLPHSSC
Description: LanthaScreen Eu kinase binding assay, TYRO3. As to conditions: Tracer 236. The procedure: as §1, §2, §3, §4, §5

In experiment [3] the target is T3, Mer (Homo sapiens, UniProt Q12866).
T3 construct: purchased Life Technologies
T3 sequence (Q12866 21-999): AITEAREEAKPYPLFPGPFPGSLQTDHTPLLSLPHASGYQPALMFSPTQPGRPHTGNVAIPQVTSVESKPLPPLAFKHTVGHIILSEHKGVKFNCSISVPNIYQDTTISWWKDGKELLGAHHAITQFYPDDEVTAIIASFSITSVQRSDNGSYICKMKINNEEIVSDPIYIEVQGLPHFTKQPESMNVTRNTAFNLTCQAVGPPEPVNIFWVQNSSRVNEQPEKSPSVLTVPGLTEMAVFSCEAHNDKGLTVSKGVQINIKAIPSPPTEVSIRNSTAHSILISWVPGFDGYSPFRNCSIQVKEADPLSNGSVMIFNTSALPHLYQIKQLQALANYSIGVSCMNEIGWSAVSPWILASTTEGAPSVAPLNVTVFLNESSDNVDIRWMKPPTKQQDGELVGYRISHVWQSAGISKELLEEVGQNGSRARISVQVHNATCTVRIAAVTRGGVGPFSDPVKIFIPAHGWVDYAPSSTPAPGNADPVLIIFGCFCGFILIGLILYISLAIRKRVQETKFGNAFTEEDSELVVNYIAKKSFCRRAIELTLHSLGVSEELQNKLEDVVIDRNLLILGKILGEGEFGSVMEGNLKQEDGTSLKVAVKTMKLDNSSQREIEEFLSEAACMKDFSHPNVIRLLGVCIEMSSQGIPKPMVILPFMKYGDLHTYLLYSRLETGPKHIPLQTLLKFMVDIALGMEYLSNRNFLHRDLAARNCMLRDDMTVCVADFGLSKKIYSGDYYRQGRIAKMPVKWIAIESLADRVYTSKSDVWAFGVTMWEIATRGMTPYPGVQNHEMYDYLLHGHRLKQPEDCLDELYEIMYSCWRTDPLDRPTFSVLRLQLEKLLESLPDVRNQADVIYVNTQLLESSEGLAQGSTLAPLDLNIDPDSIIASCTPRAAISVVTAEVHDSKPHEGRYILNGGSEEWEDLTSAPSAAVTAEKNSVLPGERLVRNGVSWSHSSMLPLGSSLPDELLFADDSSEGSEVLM
The experiment can be described thus: LanthaScreen Eu kinase binding assay, Mer. As to conditions: Tracer 236. How it is done:
as §1, §2, §3, §4, §5
In general terms: In TR-FRET formats the signal depends on donor and acceptor labels being close together.

In experiment [4] the target is T4, Met (Homo sapiens, UniProt P08581).
T4 construct: purchased Life Technologies
T4 sequence (P08581 25-1390): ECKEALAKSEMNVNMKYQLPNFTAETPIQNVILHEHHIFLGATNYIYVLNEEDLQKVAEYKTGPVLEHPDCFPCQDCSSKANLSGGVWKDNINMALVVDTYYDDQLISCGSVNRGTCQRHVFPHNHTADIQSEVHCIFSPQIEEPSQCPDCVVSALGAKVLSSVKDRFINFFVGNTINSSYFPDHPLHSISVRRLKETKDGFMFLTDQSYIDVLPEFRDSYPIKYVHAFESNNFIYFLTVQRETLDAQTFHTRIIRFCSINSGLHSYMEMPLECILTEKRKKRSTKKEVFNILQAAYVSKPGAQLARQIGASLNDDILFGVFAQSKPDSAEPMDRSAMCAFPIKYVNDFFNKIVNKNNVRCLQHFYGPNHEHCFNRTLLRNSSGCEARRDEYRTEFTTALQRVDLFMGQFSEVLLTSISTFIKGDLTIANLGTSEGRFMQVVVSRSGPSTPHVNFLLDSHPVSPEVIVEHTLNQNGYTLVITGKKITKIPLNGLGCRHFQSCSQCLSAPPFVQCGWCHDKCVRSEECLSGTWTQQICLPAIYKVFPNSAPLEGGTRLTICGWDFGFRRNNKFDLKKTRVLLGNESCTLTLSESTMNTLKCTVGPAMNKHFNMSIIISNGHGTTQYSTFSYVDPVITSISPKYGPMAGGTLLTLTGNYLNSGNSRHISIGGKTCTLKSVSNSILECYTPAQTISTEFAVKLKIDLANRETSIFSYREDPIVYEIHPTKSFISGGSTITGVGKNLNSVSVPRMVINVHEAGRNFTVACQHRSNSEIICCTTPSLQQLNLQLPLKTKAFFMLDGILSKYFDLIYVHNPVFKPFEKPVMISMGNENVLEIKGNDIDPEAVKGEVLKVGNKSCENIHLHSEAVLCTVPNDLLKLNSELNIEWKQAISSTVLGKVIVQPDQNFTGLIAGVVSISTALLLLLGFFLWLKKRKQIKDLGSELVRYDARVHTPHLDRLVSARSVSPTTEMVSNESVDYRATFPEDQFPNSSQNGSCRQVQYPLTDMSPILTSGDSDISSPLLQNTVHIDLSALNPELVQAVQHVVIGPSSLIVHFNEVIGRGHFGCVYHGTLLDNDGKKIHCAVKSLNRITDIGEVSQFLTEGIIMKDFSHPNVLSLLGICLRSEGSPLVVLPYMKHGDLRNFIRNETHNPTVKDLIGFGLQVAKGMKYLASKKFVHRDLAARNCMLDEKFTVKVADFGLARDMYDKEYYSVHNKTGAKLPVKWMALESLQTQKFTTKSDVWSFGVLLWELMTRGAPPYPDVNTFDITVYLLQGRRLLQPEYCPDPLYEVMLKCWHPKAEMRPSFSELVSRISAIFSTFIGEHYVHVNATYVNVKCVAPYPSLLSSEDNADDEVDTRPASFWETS
The experiment can be described thus: LanthaScreen Eu kinase binding assay, Met. Particulars: Tracer 236, read-out: cMet kinase binding activity (Kd). The procedure: as §1, §2, §3, §4, §5

One may read the Kd as the free concentration of one partner at which half of the binding sites on the other are occupied at equilibrium, for simple one-to-one binding.

For `CCOc1cn(CCC(=O)O)nc1C(=O)Nc1ccc(Oc2ccnc3cc(OC)c(OC)cc23)cn1` [Compound 63], the dissociation constant Kd in experiment [1], in experiment [2], in experiment [3] and in experiment [4] was 0.1 to 1 µM in each case.

For the molecule `CCOc1cn(CCC(=O)NC)nc1C(=O)Nc1ccc(Oc2ccnc3cc(OC)c(OC)cc23)cn1` [Compound 67], the Kd in experiment [1] is 0.1 to 1 µM; in experiment [2] it was 0.1 to 1 µM; in experiment [3], less than 0.1 µM; in experiment [4], 0.1 to 1 µM.

Take `CCOc1cn(C2CCNC2)nc1C(=O)Nc1ccc(Oc2ccnc3cc(OC)c(OC)cc23)cn1` (stereo not drawn) [Compound 69]: the Kd in experiment [1] was no less than 1 µM; in experiment [2], no less than 1 µM; in experiment [3] it was 0.1 to 1 µM; in experiment [4] it was 0.1 to 1 µM.

Take `CCOc1cn(CCO)nc1C(=O)Nc1ccc(Oc2ccnc3cc(OC)c(OC)cc23)cn1` [Compound 70]: the Kd in experiment [1] was 0.1 to 1 µM; in experiment [2], 0.1 to 1 µM; in experiment [3], less than 0.1 µM; in experiment [4], 0.1 to 1 µM.

In the case of `CCOc1cnn(C2CCNC2)c1C(=O)Nc1ccc(Oc2ccnc3cc(OC)c(OC)cc23)cn1` (stereo not drawn) [Compound 71], the Kd in experiment [1] is no less than 1 µM; in experiment [2], no less than 1 µM; in experiment [3] it was 0.1 to 1 µM; in experiment [4], 0.1 to 1 µM.

For `CCOc1cnn(CCO)c1C(=O)Nc1ccc(Oc2ccnc3cc(OC)c(OC)cc23)cn1` [Compound 72], the dissociation constant Kd in experiment [1] was no less than 1 µM; in experiment [2], no less than 1 µM; in experiment [3], 0.1 to 1 µM; in experiment [4], 0.1 to 1 µM.

Turning to `CCOc1cn(C2CCN(C)C2)nc1C(=O)Nc1ccc(Oc2ccnc3cc(OC)c(OC)cc23)cn1` (stereo not drawn) [Compound 74], the Kd was 0.1 to 1 µM in experiment [1], 0.1 to 1 µM in experiment [2], less than 0.1 µM in experiment [3] and 0.1 to 1 µM in experiment [4].

With `CCOc1cnn(C2CCN(C)C2)c1C(=O)Nc1ccc(Oc2ccnc3cc(OC)c(OC)cc23)cn1` (stereo not drawn) [Compound 75], the Kd in experiment [1] was 0.1 to 1 µM; in experiment [2], no less than 1 µM; in experiment [3], 0.1 to 1 µM; in experiment [4], 0.1 to 1 µM.

For the molecule `CCOc1cnn(C2CCOC2)c1C(=O)Nc1ccc(Oc2ccnc3cc(OC)c(OC)cc23)cn1` (stereo not drawn) [Compound 77], the Kd was 0.1 to 1 µM in experiment [1], 0.1 to 1 µM in experiment [2], less than 0.1 µM in experiment [3] and 0.1 to 1 µM in experiment [4].

As for `CCOc1cnn(CCOC(F)F)c1C(=O)Nc1ccc(Oc2ccnc3cc(OC)c(OC)cc23)cn1` [Compound 78], the Kd in experiment [1] was no less than 1 µM; in experiment [2], no less than 1 µM; in experiment [3], 0.1 to 1 µM; in experiment [4] it was 0.1 to 1 µM.

On to `CCOc1cn(Cc2cccnc2)nc1C(=O)Nc1ccc(Oc2ccnc3cc(OC)c(OC)cc23)cn1` [Compound 83], for which the Kd was less than 0.1 µM in experiment [1], 0.1 to 1 µM in experiment [2], less than 0.1 µM in experiment [3] and less than 0.1 µM in experiment [4].

Take `CCOc1cnn(Cc2cccnc2)c1C(=O)Nc1ccc(Oc2ccnc3cc(OC)c(OC)cc23)cn1` [Compound 84]: the Kd is 0.1 to 1 µM in experiment [1], no less than 1 µM in experiment [2], less than 0.1 µM in experiment [3] and less than 0.1 µM in experiment [4].

As to `CCOc1cn(-c2cnc(C(=O)O)nc2)nc1C(=O)Nc1ccc(Oc2ccnc3cc(OC)c(OC)cc23)cn1` [Compound 88], the Kd in experiment [1] is no less than 1 µM; in experiment [2] it was no less than 1 µM; in experiment [3], 0.1 to 1 µM; in experiment [4], 0.1 to 1 µM.

For `CCOc1cn(-c2ccc(F)cc2C)nc1C(=O)Nc1ccc(Oc2ccnc3cc(OC)c(OC)cc23)c(NC(C)C)c1` [Compound 91], the Kd in experiment [1] was 0.1 to 1 µM; in experiment [2], 0.1 to 1 µM; in experiment [3] it was 0.1 to 1 µM; in experiment [4], no less than 1 µM.

Regarding `CCOc1cnn(CCc2cccnc2)c1C(=O)Nc1ccc(Oc2ccnc3cc(OC)c(OC)cc23)cn1` [Compound 95], the equilibrium dissociation constant (Kd) in experiment [1] is 0.1 to 1 µM; in experiment [2], 0.1 to 1 µM; in experiment [3], less than 0.1 µM; in experiment [4], less than 0.1 µM.

`CCOc1cn(-c2ccc(F)cc2C)nc1C(=O)Nc1cnc(Oc2ccnc3cc(OC)c(OC)cc23)cn1` [Compound 98]: the Kd in experiment [1], in experiment [2], in experiment [3] and in experiment [4] was no less than 1 µM throughout.

For `CCOc1cnn(-c2ccc(Cl)cc2C(F)(F)F)c1C(=O)Nc1ccc(Oc2ccnc3cc(OC)c(OC)cc23)cn1` [Compound 103], the Kd in experiment [1], in experiment [2], in experiment [3] and in experiment [4] was 0.1 to 1 µM throughout.

On to `CCOc1cn(-c2ccc(F)cc2C)nc1C(=O)Nc1ccc(Oc2ccnc3cc(OC)c(OC)cc23)cc1C(F)(F)F` [Compound 109], for which the Kd is 0.1 to 1 µM in experiment [1], no less than 1 µM in experiment [2], no less than 1 µM in experiment [3] and 0.1 to 1 µM in experiment [4].
